Measured values from PubChem BioAssay (NCI).
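Five compound concentrations were applied to cells in 96-well plates for 48 hours; endpoints were derived by simple linear interpolation of the resulting dose-response curve. TGI is the concentration that stops growth completely.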

Legend:
Test in all cases: DTP human tumour cell line panel, 48 h
[1] = test system: IGROV1 ovarian
[2] = test system: OVCAR-4 ovarian
[3] = test system: HCT-116 colon
[4] = test system: SN12C renal
[5] = test system: NCI-H522 lung
[6] = test system: SF-539 CNS
[7] = test system: SR leukemia
[8] = test system: MALME-3M melanoma
[9] = test system: UACC-257 melanoma
[10] = test system: LOX IMVI melanoma
[11] = test system: SW-620 colon
[12] = test system: SK-MEL-28 melanoma
[13] = test system: U251 CNS
[14] = test system: CAKI-1 renal
[15] = test system: HOP-62 NSCLC
[16] = test system: SF-295 CNS
[17] = test system: UACC-62 melanoma
[18] = test system: NCI-H23 lung
[19] = test system: KM20L2 colon
[20] = test system: HOP-18 NSCLC
[21] = test system: SNB-19 CNS
[22] = test system: OVCAR-3 ovarian
[23] = test system: UO-31 renal
[24] = test system: RXF 393 renal
[25] = test system: NCI-H460 lung
[26] = test system: SF-268 CNS
[27] = test system: HCC-2998 colon
[28] = test system: XF 498 CNS
[29] = test system: 786-0 renal
[30] = test system: OVCAR-5 ovarian
[31] = test system: M14 melanoma
[32] = test system: KM12 colon
[33] = test system: ACHN renal
[34] = test system: A549 NSCLC
[35] = test system: HT29 colon
[36] = test system: MOLT-4 leukemia
[37] = test system: COLO 205 colon
[38] = test system: RXF-631 renal
[39] = test system: HCT-15 colon
[40] = test system: RPMI-8226 leukemia
[41] = test system: SK-OV-3 ovarian
[42] = test system: DMS 114 small cell lung
[43] = test system: OVCAR-8 ovarian
[44] = test system: DLD-1 colon
[45] = test system: M19-MEL melanoma
[46] = test system: SK-MEL-2 melanoma
[47] = test system: HL-60(TB) leukemia
[48] = test system: LXFL 529 NSCLC
[49] = test system: SNB-78 CNS
[50] = test system: EKVX NSCLC
[51] = test system: NCI-H226 lung
[52] = test system: TK-10 renal
[53] = test system: K-562 leukemia
[54] = test system: SNB-75 CNS
[55] = test system: NCI/ADR-RES ovarian
[56] = test system: DMS 273 small cell lung
[57] = test system: MCF7 breast
[58] = test system: SK-MEL-5 melanoma
[59] = test system: HOP-92 NSCLC
[60] = test system: MDA-N
[61] = test system: CCRF-CEM leukemia
[62] = test system: PC-3 prostate
[63] = test system: A498 renal
[64] = test system: DU-145 prostate
[65] = test system: T-47D breast
[66] = test system: HS 578T breast
[67] = test system: MDA-MB-435
[68] = test system: BT-549 breast
[69] = test system: MDA-MB-231 breast

Compound: CC1=C(C(=O)NNS(=O)(=O)c2ccc(C)cc2)CC(C(=O)NNS(=O)(=O)c2ccc(C)cc2)=C(C)N1
- TGI [1]: > 100 µM
- TGI [2]: > 100 µM
- TGI [3]: > 100 µM
- TGI [4]: > 100 µM
- TGI [5]: > 100 µM
- TGI [6]: > 100 µM
- TGI [7]: > 100 µM
- TGI [8]: > 100 µM
- TGI [9]: > 100 µM
- TGI [10]: > 100 µM
- TGI [11]: > 100 µM
- TGI [12]: > 100 µM
- TGI [13]: > 100 µM
- TGI [14]: > 100 µM
- TGI [15]: > 100 µM
- TGI [16]: > 100 µM
- TGI [17]: 47.2 µM
- TGI [18]: > 100 µM
- TGI [19]: > 100 µM
- TGI [20]: > 100 µM
- TGI [21]: > 100 µM
- TGI [22]: > 100 µM
- TGI [23]: > 100 µM
- TGI [24]: > 100 µM
- TGI [25]: > 100 µM
- TGI [26]: > 100 µM
- TGI [27]: > 100 µM
- TGI [28]: > 100 µM
- TGI [29]: > 100 µM
- TGI [30]: > 100 µM
- TGI [31]: > 100 µM
- TGI [32]: > 100 µM
- TGI [33]: > 100 µM
- TGI [34]: > 100 µM
- TGI [35]: > 100 µM
- TGI [36]: > 100 µM
- TGI [37]: > 100 µM
- TGI [38]: > 100 µM
- TGI [39]: > 100 µM
- TGI [40]: > 100 µM
- TGI [41]: > 100 µM
- TGI [42]: > 100 µM
- TGI [43]: > 100 µM
- TGI [44]: > 100 µM
- TGI [45]: > 100 µM
- TGI [46]: > 100 µM
- TGI [47]: > 100 µM
- TGI [48]: > 100 µM
- TGI [49]: > 100 µM
- TGI [50]: > 100 µM
- TGI [51]: > 100 µM
- TGI [52]: > 100 µM
- TGI [53]: > 100 µM

Compound: COc1cc(CC(C)N)ccc1O (configuration not stated)
- TGI [54]: > 100 µM
- TGI [1]: > 100 µM
- TGI [2]: > 100 µM
- TGI [3]: > 100 µM
- TGI [55]: > 100 µM
- TGI [56]: > 100 µM
- TGI [4]: > 100 µM
- TGI [5]: > 100 µM
- TGI [6]: > 100 µM
- TGI [7]: > 100 µM
- TGI [8]: > 100 µM
- TGI [57]: > 100 µM
- TGI [9]: > 100 µM
- TGI [10]: > 100 µM
- TGI [58]: > 100 µM
- TGI [11]: > 100 µM
- TGI [59]: > 100 µM
- TGI [12]: > 100 µM
- TGI [13]: > 100 µM
- TGI [14]: > 100 µM
- TGI [15]: > 100 µM
- TGI [16]: > 100 µM
- TGI [17]: > 100 µM
- TGI [18]: > 100 µM
- TGI [60]: > 100 µM
- TGI [19]: > 100 µM
- TGI [61]: > 31.6 µM
- TGI [20]: > 100 µM
- TGI [21]: > 100 µM
- TGI [22]: > 100 µM
- TGI [23]: > 100 µM
- TGI [24]: > 100 µM
- TGI [25]: > 100 µM
- TGI [26]: > 100 µM
- TGI [27]: > 100 µM
- TGI [28]: > 100 µM
- TGI [29]: > 100 µM
- TGI [30]: > 100 µM
- TGI [31]: > 100 µM
- TGI [32]: > 100 µM
- TGI [33]: > 100 µM
- TGI [34]: > 100 µM
- TGI [62]: > 100 µM
- TGI [35]: > 100 µM
- TGI [36]: > 100 µM
- TGI [37]: > 100 µM
- TGI [38]: > 100 µM
- TGI [39]: > 100 µM
- TGI [40]: > 100 µM
- TGI [63]: > 100 µM
- TGI [41]: > 100 µM
- TGI [42]: > 100 µM
- TGI [43]: > 100 µM
- TGI [44]: > 100 µM
- TGI [46]: > 100 µM
- TGI [47]: > 100 µM
- TGI [48]: > 100 µM
- TGI [64]: > 100 µM
- TGI [65]: > 100 µM
- TGI [49]: > 100 µM
- TGI [50]: > 100 µM
- TGI [51]: > 100 µM
- TGI [52]: > 100 µM
- TGI [53]: > 100 µM
- TGI [66]: > 100 µM

Compound: COc1c(O)c(O)cc2c1-c1ccc(OC)c(=O)cc1C(NC(C)=O)CC2 (configuration not stated)
- TGI [54]: 63.9 µM
- TGI [1]: > 100 µM
- TGI [2]: 77.2 µM
- TGI [3]: 25.6 µM
- TGI [67]: 3.75 µM
- TGI [55]: > 69.8 µM
- TGI [56]: > 59.8 µM
- TGI [4]: 42.5 µM
- TGI [5]: 3.5 µM
- TGI [6]: 10.4 µM
- TGI [7]: > 100 µM
- TGI [8]: > 100 µM
- TGI [57]: 11.9 µM
- TGI [9]: 76.9 µM
- TGI [10]: 20.6 µM
- TGI [58]: 11.3 µM
- TGI [11]: 63.3 µM
- TGI [59]: 17.8 µM
- TGI [12]: > 100 µM
- TGI [13]: 28.9 µM
- TGI [14]: 95.6 µM
- TGI [15]: 87.1 µM
- TGI [16]: 20.5 µM
- TGI [17]: 24.8 µM
- TGI [18]: 34.2 µM
- TGI [60]: 4.84 µM
- TGI [19]: 17.5 µM
- TGI [61]: 40.2 µM
- TGI [20]: > 100 µM
- TGI [21]: > 100 µM
- TGI [22]: 5.77 µM
- TGI [23]: > 100 µM
- TGI [24]: > 41.2 µM
- TGI [25]: 50.9 µM
- TGI [26]: > 95.2 µM
- TGI [27]: 74.8 µM
- TGI [28]: 54.2 µM
- TGI [29]: 74.8 µM
- TGI [30]: 80.6 µM
- TGI [31]: > 79 µM
- TGI [32]: 33 µM
- TGI [33]: > 96.5 µM
- TGI [34]: > 100 µM
- TGI [62]: > 100 µM
- TGI [35]: 16 µM
- TGI [36]: 43.6 µM
- TGI [37]: 9.07 µM
- TGI [38]: 68.4 µM
- TGI [39]: > 100 µM
- TGI [40]: 54.9 µM
- TGI [63]: 89 µM
- TGI [41]: 32.9 µM
- TGI [42]: 6.43 µM
- TGI [43]: 62.2 µM
- TGI [68]: 14.9 µM
- TGI [44]: > 100 µM
- TGI [45]: 23.7 µM
- TGI [69]: > 59.4 µM
- TGI [46]: 50.6 µM
- TGI [47]: 18 µM
- TGI [48]: 25.2 µM
- TGI [64]: 40.6 µM
- TGI [65]: > 100 µM
- TGI [49]: > 100 µM
- TGI [50]: 98.2 µM
- TGI [51]: 70.2 µM
- TGI [52]: > 100 µM
- TGI [53]: 19.2 µM
- TGI [66]: > 24.9 µM
